Values quoted from earlier work in patent publication US20240139133A1, “TOPICAL NAPROXEN FORMULATIONS AND THEIR USE” (SMARTECH TOPICAL, INC., priority 2021, published 2024).

Conditions: printed as a negative log P

For CCOCCOCCO [Transcutol, 2-(2-Ethoxyethoxy)ethanol], the log P is listed as ~-0.5.
